Key:
[1] = tested on: TYK2 dependent cell lines (T-ALL cells); conditions: Sanda et al.; cited from earlier work
[2] = tested on: CCRF-CEM cells (TYK2-dependent T-ALL); test: Cell proliferation assay (ATPlite, 7 days); format: cell-based; conditions: Homo sapiens, 168 h
Procedure: (§1) Jurkat, MOLT-4, CCRF-CEM and CCRF-HSB-2 cells are all TYK2-dependent T-ALL cells. Loucy cells are TYK2-independent T-ALL cell lines. Dexamethasone, Etoposide and Paclitaxel were used as positive controls. Compound effects were studied 7 days after compound addition […] Luminescent product was detected using a BMG FLUOstar plate reader. • The data were analysed using a 4-parameter logistic equation in GraphPad Prism.

[3] = tested on: CCRF-HSB-2 cells (TYK2-dependent T-ALL); test: Cell proliferation assay (ATPlite, 7 days); format: cell-based; conditions: Homo sapiens, CCRF-HSB-2, 168 h
Procedure: as §1

[4] = tested on: Jurkat cells (TYK2-dependent T-ALL); test: Cell proliferation assay (ATPlite, 7 days); format: cell-based; conditions: Homo sapiens, 168 h
Procedure: as §1

[5] = tested on: Loucy cells (TYK2-independent T-ALL); test: Cell proliferation assay (ATPlite, 7 days); format: cell-based; conditions: 168 h
Procedure: as §1

[6] = tested on: MOLT-4 cells (TYK2-dependent T-ALL); test: Cell proliferation assay (ATPlite, 7 days); format: cell-based; conditions: Homo sapiens, MOLT-4, 168 h
Procedure: as §1

JAK1 = biological target: T1, JAK1 (Homo sapiens, UniProt P23458); test: In vitro enzyme inhibition, 33P-ATP filter kinase assay (Reaction Biology); format: biochemical
T1 construct: 866-1154; GST (N); purchased Reaction Biology Corp. (contract assay); host or cells: Baculovirus in Sf21 insect cells
Procedure: (§2) Compounds of the invention were assayed for their ability to inhibit TYK2 kinase and other JAK kinases.
(§3) Substrates and kinases used in the assays are identified in Table 2 below.
(§4) JAK3tide=[Ac-[…]-NH2]

JAK3 = biological target: T2, JAK3 (Homo sapiens, UniProt P52333); test: as above; format: biochemical
T2 construct: 781-1124; GST (N); purchased Reaction Biology Corp. (contract assay); host or cells: Baculovirus in Sf21 insect cells
Procedure: as §2, §3, §4

TYK2 kinase = biological target: T3, TYK2 kinase (Homo sapiens, UniProt P29597); test: as above; format: biochemical
T3 construct: 833-1187; GST (N); purchased Reaction Biology Corp. (contract assay); host or cells: Baculovirus in Sf21 insect cells
Procedure: as §2, §3, §4

JAK2 = biological target: T4, JAK2 (Homo sapiens, UniProt O60674); test: as above; format: biochemical
T4 construct: 809-1132; GST (N); '+g'; purchased Reaction Biology Corp. (contract assay); host or cells: Baculovirus in Sf21 insect cells
Procedure: as §2, §3

T1 sequence (P23458 866-1154): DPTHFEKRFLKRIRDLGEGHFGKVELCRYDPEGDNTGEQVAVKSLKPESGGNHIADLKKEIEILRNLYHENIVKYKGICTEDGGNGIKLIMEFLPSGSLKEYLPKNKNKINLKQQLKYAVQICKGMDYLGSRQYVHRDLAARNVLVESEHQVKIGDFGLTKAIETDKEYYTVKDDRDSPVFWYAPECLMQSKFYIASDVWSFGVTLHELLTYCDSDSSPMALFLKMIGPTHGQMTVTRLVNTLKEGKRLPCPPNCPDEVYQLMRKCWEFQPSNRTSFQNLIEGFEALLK
T2 sequence (P52333 781-1124): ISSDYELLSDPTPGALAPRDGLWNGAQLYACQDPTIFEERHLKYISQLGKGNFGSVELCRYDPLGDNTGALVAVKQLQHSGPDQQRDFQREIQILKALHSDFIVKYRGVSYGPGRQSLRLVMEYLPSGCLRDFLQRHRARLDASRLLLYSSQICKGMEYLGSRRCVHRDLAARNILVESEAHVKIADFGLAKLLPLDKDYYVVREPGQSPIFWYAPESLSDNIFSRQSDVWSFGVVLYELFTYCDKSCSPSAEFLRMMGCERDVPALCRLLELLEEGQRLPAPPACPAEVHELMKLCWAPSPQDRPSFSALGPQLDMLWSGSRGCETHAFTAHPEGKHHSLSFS
T4 sequence (O60674 809-1132): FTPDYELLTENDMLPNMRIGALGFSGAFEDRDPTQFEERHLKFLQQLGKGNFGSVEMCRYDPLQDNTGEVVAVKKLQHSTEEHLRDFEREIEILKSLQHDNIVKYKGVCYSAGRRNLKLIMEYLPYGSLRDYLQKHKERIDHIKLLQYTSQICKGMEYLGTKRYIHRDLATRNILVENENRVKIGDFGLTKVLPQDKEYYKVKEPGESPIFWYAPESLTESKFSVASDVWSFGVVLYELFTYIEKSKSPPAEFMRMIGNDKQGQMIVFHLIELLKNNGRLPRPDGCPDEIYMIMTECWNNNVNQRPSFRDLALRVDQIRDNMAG
T3 sequence (P29597 833-1187): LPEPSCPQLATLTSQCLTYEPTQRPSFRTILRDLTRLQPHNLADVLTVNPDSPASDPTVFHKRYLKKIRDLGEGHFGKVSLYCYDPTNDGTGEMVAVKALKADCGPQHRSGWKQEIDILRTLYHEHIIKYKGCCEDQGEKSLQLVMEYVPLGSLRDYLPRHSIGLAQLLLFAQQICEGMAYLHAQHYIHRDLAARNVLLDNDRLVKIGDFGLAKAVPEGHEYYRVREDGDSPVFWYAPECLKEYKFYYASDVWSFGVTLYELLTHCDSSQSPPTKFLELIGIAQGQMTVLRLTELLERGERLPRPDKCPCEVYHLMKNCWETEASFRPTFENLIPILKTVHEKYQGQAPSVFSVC

**Q.** Which “effect against the T-ALL cells” value [1] does the source give for C[C@@H]1CCN(C(=O)CC#N)C[C@@H]1N(C)c1ncnc2[nH]ccc12 [CP-690550] here?
**A.** ineffective

**Q.** What does the source list for CS(=O)(=O)c1ccc(Nc2oc(-c3c(Cl)cccc3Cl)nc2C(N)=O)cc1 [Compound 19, 2-(2,6-dichloro-phenyl)-5-(4-methanesulfonyl-phenylamino)-oxazole-4-carboxylic acid amide]?
**A.** inhibition at 30 µM ([2]; 30 μM, read-out: Cell proliferation inh. @ 30 μM, CCRF-CEM): 34%; IC50 [3]: 17 µM; inhibition at 30 µM ([4]; 30 μM, read-out: Cell proliferation inh. @ 30 μM, Jurkat): 8%; IC50 [5]: 20 µM; IC50 [6]: 12 µM

**Q.** Which IC50 [2] does the source give for CS(=O)(=O)c1ccc(Nc2oc(-c3c(F)cccc3Cl)nc2C(N)=O)cc1 [Compound 20, 2-(2-chloro-6-fluoro-phenyl)-5-(4-methanesulfonyl-phenylamino)-oxazole-4-carboxylic acid amide] here?
**A.** 8.9 µM

**Q.** What about the IC50 [3] of the same molecule?
**A.** 2.8 µM

**Q.** And the IC50 [4]?
**A.** 2.1 µM

**Q.** And the IC50 [5]?
**A.** 3.9 µM

**Q.** And the IC50 [6]?
**A.** 3.1 µM

**Q.** With NC(=O)c1nc(-c2c(F)cccc2Cl)oc1Nc1ccc(C(=O)N[C@H]2CCCNC2)cc1 [Compound 23, (S) 2-(2-chloro-6-fluoro-phenyl)-5-[4-(piperidin-3-ylcarbamoyl)-phenylamino]-oxazole-4-carboxylic acid amide] as the molecule, how does the IC50 (JAK1) read?
**A.** 63.3 nM

**Q.** And the IC50 (JAK3)?
**A.** 240 nM

**Q.** What about the IC50 (TYK2 kinase) of the same molecule?
**A.** 1.89 nM

**Q.** What about the IC50 (JAK2) of the same molecule?
**A.** 61.9 nM

**Q.** Which results are given for NC(=O)c1nc(-c2c(F)cccc2Cl)oc1Nc1ccc(C(=O)N[C@@H]2CCCNC2)cc1 [Compound 24, (R) 2-(2-chloro-6-fluoro-phenyl)-5-[4-(piperidin-3-ylcarbamoyl)-phenylamino]-oxazole-4-carboxylic acid amide]?
**A.** IC50 (JAK1): 157 nM; IC50 (JAK3): 167 nM; IC50 (TYK2 kinase): 5.11 nM; IC50 (JAK2): 125 nM

**Q.** Which IC50 (JAK1) does the source give for CN1CCC(NC(=O)c2ccc(Nc3oc(-c4c(F)cccc4Cl)nc3C(N)=O)cc2)CC1 [Compound 26, 2-(2-chloro-6-fluoro-phenyl)-5-[4-(1-methyl-piperidin-4-ylcarbamoyl)-phenylamino]-oxazole-4-carboxylic acid amide] here?
**A.** 100 nM

**Q.** What about the IC50 (JAK3) of the same molecule?
**A.** 132 nM

**Q.** What about the IC50 (TYK2 kinase) of the same molecule?
**A.** 2.98 nM

**Q.** What about the IC50 (JAK2) of the same molecule?
**A.** 87.8 nM

**Q.** Which IC50 (JAK1) does the source give for NC(=O)c1nc(-c2c(Cl)cccc2Cl)oc1Nc1ccc(C(=O)N[C@H]2CCCNC2)cc1 [Compound 27, (S) 2-(2,6-dichloro-phenyl)-5-[4-(piperidin-3-ylcarbamoyl)-phenylamino]-oxazole-4-carboxylic acid amide] here?
**A.** 72.2 nM

**Q.** What about the IC50 (JAK3) of the same molecule?
**A.** 233 nM

**Q.** What about the IC50 (TYK2 kinase) of the same molecule?
**A.** 1.21 nM

**Q.** And the IC50 (JAK2)?
**A.** 93.3 nM

**Q.** Which IC50 (JAK1) does the source give for NC(=O)c1nc(-c2c(Cl)cccc2Cl)oc1Nc1ccc(C(=O)N[C@@H]2CCCNC2)cc1 [Compound 28, (R) 2-(2,6-dichloro-phenyl)-5-[4-(piperidin-3-ylcarbamoyl)-phenylamino]-oxazole-4-carboxylic acid amide] here?
**A.** 108 nM

**Q.** And the IC50 (JAK3)?
**A.** 194 nM

**Q.** What about the IC50 (TYK2 kinase) of the same molecule?
**A.** 1.77 nM

**Q.** What about the IC50 (JAK2) of the same molecule?
**A.** 122 nM

**Q.** With CN1CCC(NC(=O)c2ccc(Nc3oc(-c4c(Cl)cccc4Cl)nc3C(N)=O)cc2)CC1 [Compound 30, 2-(2,6-dichloro-phenyl)-5-[4-(1-methyl-piperidin-4-ylcarbamoyl)-phenylamino]-oxazole-4-carboxylic acid amide] as the molecule, how does the IC50 (JAK1) read?
**A.** 83.4 nM

**Q.** And the IC50 (JAK3)?
**A.** 164 nM

**Q.** What about the IC50 (TYK2 kinase) of the same molecule?
**A.** 1.52 nM

**Q.** And the IC50 (JAK2)?
**A.** 106 nM

**Q.** For CCS(=O)(=O)c1ccc(Nc2oc(-c3c(F)cccc3F)nc2C(N)=O)cc1 [Compound 31, 2-(2,6-difluoro-phenyl)-5-(4-ethanesulfonyl-phenylamino)-oxazole-4-carboxylic acid amide], which IC50 (JAK1) is on record?
**A.** 222 nM

**Q.** And the IC50 (JAK3)?
**A.** 390 nM

**Q.** And the IC50 (TYK2 kinase)?
**A.** 4.41 nM

**Q.** And the IC50 (JAK2)?
**A.** 213 nM

**Q.** Which IC50 (JAK1) does the source give for CC(C)S(=O)(=O)c1ccc(Nc2oc(-c3c(F)cccc3F)nc2C(N)=O)cc1 [Compound 33] here?
**A.** 135 nM

**Q.** And the IC50 (JAK3)?
**A.** 516 nM

**Q.** And the IC50 (TYK2 kinase)?
**A.** 5.47 nM

**Q.** What about the IC50 (JAK2) of the same molecule?
**A.** 153 nM

**Q.** For C[C@@H]1C[C@H]2[C@@H]3CCC4=CC(=O)C=C[C@]4(C)[C@@]3(F)[C@@H](O)C[C@]2(C)[C@@]1(O)C(=O)CO [Dexamethasone, reference compound], which IC50 [2] is on record?
**A.** 59 µM

**Q.** And the IC50 [3]?
**A.** 49 µM

**Q.** And the inhibition at 10 µM ([4]; 10 μM, read-out: Cell proliferation inh. @ 10 μM, Jurkat)?
**A.** 5%

**Q.** What about the inhibition at 10 µM ([5]; 10 μM, read-out: Cell proliferation inh. @ 10 μM, Loucy) of the same molecule?
**A.** 25%

**Q.** And the inhibition at 10 µM ([6]; 10 μM, read-out: Cell proliferation inh. @ 10 μM, MOLT-4)?
**A.** 21%

**Q.** For COc1cc([C@@H]2c3cc4c(cc3[C@@H](O[C@@H]3O[C@@H]5CO[C@@H](C)O[C@H]5[C@H](O)[C@H]3O)[C@H]3COC(=O)[C@H]23)OCO4)cc(OC)c1O [Etoposide, reference compound], which IC50 [2] is on record?
**A.** 17 µM

**Q.** And the IC50 [3]?
**A.** 4.7 µM

**Q.** What about the IC50 [4] of the same molecule?
**A.** 94 µM

**Q.** What about the IC50 [5] of the same molecule?
**A.** 33 µM

**Q.** What about the IC50 [6] of the same molecule?
**A.** 7.7 µM

**Q.** Which IC50 [2] does the source give for CC(=O)O[C@H]1C(=O)[C@@]2(C)[C@H]([C@H](OC(=O)c3ccccc3)[C@]3(O)C[C@H](OC(=O)[C@H](O)[C@@H](NC(=O)c4ccccc4)c4ccccc4)C(C)=C1C3(C)C)[C@]1(OC(C)=O)CO[C@@H]1C[C@@H]2O [Paclitaxel, reference compound] here?
**A.** 4.4 µM

**Q.** And the IC50 [3]?
**A.** 1.3 µM

**Q.** What about the IC50 [4] of the same molecule?
**A.** 1.8 µM

**Q.** What about the IC50 [5] of the same molecule?
**A.** 2.2 µM

**Q.** And the IC50 [6]?
**A.** 0.66 µM
